# Measurements published in US11752155B2, “Treatment of autism spectrum disorders, obsessive-compulsive disorder and anxiety disorders” (Rugen Holdings (Cayman) Limited, priority 2016, dated 2023).
# Several values for one entry are separate records, joined by “and”; a condition that tells them apart may be missing. Identical values can stand only once. Like-named read-outs stand apart in the source and are kept apart here.
# Experiments:
# hERG channel = hERG channel (Homo sapiens (Human), UniProt Q12809); experiment: hERG channel inhibition, whole cell patch clamp in HEK293 cells; type: cell-based; conditions: for inhibition at 5 min, 10 µM: human, HEK293 cells stably expressing hERG channel, pH 7.35
# [1] = tested on: wild type littermate mice; experiment: Grooming Test in wild type littermates of Sapap3 and Shank3 complete knockout mice; type: in vivo, mouse; conditions: for effect on grooming on Day 3 / effect on grooming on Day 5: 3 mg/kg IP on Day 1, wild type littermates; for effect on grooming on Day 1: 3 mg/kg IP, wild type littermates; for acute effect on grooming on Day 1: wild type littermates of Sapap3 knockout mice, dose-dependent
# Method: Animals. The breeding conditions and genotyping methods for Sapap3 and Shank3 complete knockout mice were the same as described in Welch et al. (Nature 2007, 448(7156):894-900) and in Wang et al. (Nat. Commun. 2016, 7:11459), respectively. Homozygous knockout mice and littermate wild type mice of both genders were used at 4 to 8 weeks of age.
# Compound formulation. The test compounds were dissolved in a small volume of dimethyl sulfoxide (DMSO) and diluted in an aqueous solution of 2-hydroxypropyl-beta-cyclodextrin (HP-β-CD) and administered IP. Dosing volume was 10 mL/kg. At 20 minutes after dosing, the mice were subjected to the behavioral test as described below.
# Testing room and apparatus. The test room was maintained under the same conditions as the colony rooms, except the mice were housed in conventional shoe-box cages with food, water, and nesting materials. Animals were housed in the test room 48-72 hours prior to testing, in order to permit the mice to fully acclimate to the test room and conventional housing cages before testing. Tests were conducted in white polyvinyl-fluoride hard-sided foam test arenas (20×20×12 cm). The arenas were indirectly illuminated by dimmable LED light bars placed level with the arena floor and 30 cm away from the external wall of the test arena. This permitted the internal area of the arena to be evenly illuminated at approximately 40 lux. The illumination levels where the mice were housed before testing were about 80-100 lux.
# Testing procedure. Mice were carefully placed into the test arenas 20 minutes after compound administration. Animals were given free exploration of the arena for 10 minutes, after which they were gently sprayed with 4 quick pumps of a water mist (total water volume approximated 1.5-1.7 mL). Mice were then allowed an additional 10 minutes to self-groom and engage in other behaviors before being removed from the arena. All tests were videotaped using cameras mounted above the testing arena and were saved to digital media format using Noldus Media Player software (Noldus Information Technologies, Leesburg, Va.). The mice were only tested once in the acute studies and were repeatedly tested in the sustained effect studies.
# Quantitation of grooming bouts. Analyses of the video recordings were conducted with TopScan behavioral recognition software (Cleversys Inc, Reston, Va.). Configurations were made which scored time spent in grooming. […] These settings permitted automated scoring of grooming by TopScan that corresponded well to manual-scoring of these behaviors by a trained blinded observer using Noldus Observer XT9 (Noldus Information Technologies), with an average corrected kappa of 0.925 (range 0.807-0.983).
# Statistical analyses. Data are presented as means and standard error of the means (SEMs). Analyses were conducted using SPSS 23 (IBM SPSS Statistics, Chicago, Ill.). Time spent in grooming behavior (seconds) over the 10-minute pre- and post-spray time blocks were analyzed with repeated measures analyses of variance (RMANOVA). The pre- and post-spray times were used for the within subject effects and the genotype and compound treatment condition were used as the between subject effects. In sustained effect studies, days were also used for a within subject effect. Some analyses of total groom time were performed in Prism 7.01 (GraphPad Software, La Jolla, Calif.), with one-way ANOVAs to compare genotypes on Day 1 or with RMANOVAs to compare treatment groups within the same genotype across days. Treatments with compounds were compared independently with the vehicle. All post-hoc comparisons were performed with Bonferroni corrections for multiple comparisons to avoid a Type I error. In all cases, a p<0.05 was considered significant.
# The wild type littermates of the Sapap3 knockout and Shank3 complete knockout mice were retested after Day 1 compound administration to determine whether the sustained effects were unique to the knockout mice. […]
# [2] = tested on: wild type mice (male C57Bl/6); experiment: Novelty Phobia Test in wild type mice; type: in vivo, mouse; conditions: for change in vivo at 0.3 mg/kg / change in vivo at 1 mg/kg / change in vivo at 30 mg/kg / change in vivo at 3 mg/kg / change in vivo at 10 mg/kg: Mus musculus, ip, IP, read-out: Percent Change in Novel Object Number of Nose Touches relative to vehicle control; for pattern of the dose-response function for bouts of nose touching: mouse, in vivo
# Method: Animals. Male C57Bl/6 mice (18-30 g body weight; 6-8 weeks of age) were obtained from Slaccas (Shanghai, China) and allowed to acclimate to the animal facility for 7 days. Mice were group housed in plastic cages (no more than 4 animals per cage) on wood shavings with nesting material. All animals had free access to food (M01-F, Slaccas) and water. The animal facility was maintained under artificial lighting between 7:00 AM and 7:00 PM in a controlled ambient temperature of 22-24° C. and relative humidity between 50-60%.
# Compound formulation. The test compounds were prepared in a vehicle of DMSO and HP-β-CD, and administered IP or PO. The test compounds or vehicle were administered at various times (10-20 minutes) before the behavioral test described below. Dosing volume was 10 mL/kg.
# Testing procedure. The behavioral testing apparatus was a rectangular black Plexiglas, 2-chambered box, with no top or bottom (50 cm long, 26 cm wide and 15 cm tall) and allowed for the simultaneous testing of 2 mice. The box was placed on a laboratory bench. The chambers of the testing box were cleaned and fresh paper chip bedding was added between tests. Mice were brought to the experiment room in their home cages on the day of testing. Behavioral tests were conducted between 10:00 AM and 1:00 PM in dim light. After drug administration, a mouse was placed into a test chamber and allowed to explore for 10 minutes. After this habituation period, a novel object (e.g., a toy ball of 3 cm in diameter with spikes) was introduced to the center of the chamber for 5 minutes. For the entire 15-minute test period, video was recorded for offline analysis with Any-maze Video Tracking software (Stoelting Co., Wood Dale, Ill.). The total distance traveled during the entire 15 minutes and the number of bouts that each mouse touched the novel object during the last 5 minutes were measured.
# Statistical analyses. Data are presented as means and SEMs. Data were analyzed using one-way analysis of variance (ANOVA; Prism, GraphPad Software Inc., San Diego, Calif.), followed by the post-hoc Dunnett's test to compare test compound-treated groups with the vehicle control. A p value<0.05 was considered significant.
# hERG channel, sequence (Q12809 whole entry): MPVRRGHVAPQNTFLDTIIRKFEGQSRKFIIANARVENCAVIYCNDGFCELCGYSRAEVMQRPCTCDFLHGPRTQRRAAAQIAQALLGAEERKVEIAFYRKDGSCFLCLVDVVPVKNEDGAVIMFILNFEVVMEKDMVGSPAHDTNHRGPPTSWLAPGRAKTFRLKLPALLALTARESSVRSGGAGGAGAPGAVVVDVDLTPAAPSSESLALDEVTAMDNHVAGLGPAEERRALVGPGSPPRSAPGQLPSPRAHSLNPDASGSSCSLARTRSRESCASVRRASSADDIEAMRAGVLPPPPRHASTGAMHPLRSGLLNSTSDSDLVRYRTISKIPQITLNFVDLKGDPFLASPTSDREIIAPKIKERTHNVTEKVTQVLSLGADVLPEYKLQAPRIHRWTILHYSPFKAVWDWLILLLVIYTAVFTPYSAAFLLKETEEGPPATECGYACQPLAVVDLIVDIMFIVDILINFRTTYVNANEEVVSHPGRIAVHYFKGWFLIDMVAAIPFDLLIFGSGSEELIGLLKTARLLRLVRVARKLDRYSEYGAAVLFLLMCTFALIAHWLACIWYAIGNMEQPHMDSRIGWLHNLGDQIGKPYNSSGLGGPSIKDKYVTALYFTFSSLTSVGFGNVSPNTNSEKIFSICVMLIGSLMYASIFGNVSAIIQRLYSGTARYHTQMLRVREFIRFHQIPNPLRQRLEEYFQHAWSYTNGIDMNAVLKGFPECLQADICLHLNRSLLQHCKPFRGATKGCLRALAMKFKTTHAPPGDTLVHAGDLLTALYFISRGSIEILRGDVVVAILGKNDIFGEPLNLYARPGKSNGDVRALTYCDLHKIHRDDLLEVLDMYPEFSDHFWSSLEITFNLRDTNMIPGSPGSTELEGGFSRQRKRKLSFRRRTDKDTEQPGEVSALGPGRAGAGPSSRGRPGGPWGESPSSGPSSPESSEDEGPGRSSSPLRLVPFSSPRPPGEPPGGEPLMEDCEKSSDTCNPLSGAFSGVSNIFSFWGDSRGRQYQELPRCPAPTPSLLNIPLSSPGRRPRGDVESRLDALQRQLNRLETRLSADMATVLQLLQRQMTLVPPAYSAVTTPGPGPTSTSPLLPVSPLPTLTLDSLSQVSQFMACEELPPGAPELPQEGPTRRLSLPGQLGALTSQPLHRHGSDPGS
Structure (SMILES),IC50 (hERG channel; Table 1.3A) [µM],effect on grooming on Day 3 [1],effect on grooming on Day 5 [1],effect on grooming on Day 1 [1],acute effect on grooming on Day 1 [1],"change in vivo at 0.3 mg/kg ([2]; 0.25 h, pre-test time 15 min) [%]","change in vivo at 1 mg/kg ([2]; 0.25 h, pre-test time 15 min) [%]","change in vivo at 30 mg/kg ([2]; 0.25 h, pre-test time 15 min) [%]","change in vivo at 0.3 mg/kg ([2]; 20 min, pre-test time 20 min) [%]","change in vivo at 1 mg/kg ([2]; 20 min, pre-test time 20 min) [%]","change in vivo at 3 mg/kg ([2]; 20 min, pre-test time 20 min) [%]",pattern of the dose-response function for bouts of nose touching [2],IC50 (hERG channel; Table 1.3B),"inhibition at 5 min, 10 µM (hERG channel) [%]","change in vivo at 0.3 mg/kg ([2]; 10 min, pre-test time 10 min) [%]","change in vivo at 10 mg/kg ([2]; 10 min, pre-test time 10 min) [%]","change in vivo at 10 mg/kg ([2]; 20 min, pre-test time 20 min) [%]","change in vivo at 30 mg/kg ([2]; 20 min, pre-test time 20 min) [%]"
FC(F)c1ccc(C(F)(F)CN2CCC(Nc3ncnc4[nH]ccc34)CC2)cc1 [C-179^A′],1.4,significantly reduced grooming,comparable to the level in the vehicle-treated group,significantly reduced grooming,significantly reduced grooming,-12,64.7,28,51.7,139,164,inverted U-shaped dose-response function,,,,,,
Cc1ccc(COC(=O)N2CC[C@H](CNc3nccn4cnnc34)C(F)(F)C2)cc1 [E1-1.2^B′],,,,,,,,,,,,dose-dependent increases,40 µM,17,16.1,218,,
Cc1ccc(COC(=O)N2CC[C@H](CNc3cnc(C)cn3)C(F)(F)C2)cc1 [E1-21.26^B′],,,,,significantly reduced grooming,,,,,,141,dose-dependent increases,,39,,,149,171
Cc1ccc(COC(=O)N2CC[C@H](CNc3ncccn3)C(F)(F)C2)cc1 [E1-22.2^B′],,significantly reduced grooming,comparable to the level in the vehicle-treated group,significantly reduced grooming,significantly reduced grooming,,,,,,163,,> 10 µM and 17 µM,,,,115,98.9
